Our source for the melting point values is a melting point compilation (Tetko et al.; mined from patent text by program, amines drawn as free bases though some values may be those of a salt).

Broadly, the melting point is the temperature, or range, at which the solid turns liquid.

The structures appear in SMILES notation.

The molecule `O=C1NC(=O)C(c2cccc3ccsc23)O1` (stereo not given) displayed a melting point of 130 to 132 °C.

Consider `Cc1ccc2c(C=O)c3ccccc3c(C=O)c2c1`, for which the melting point lay within 150 to 152 °C.

The molecule `c1ccc(CSc2cc(SCc3ccccc3)c3ccc4c(SCc5ccccc5)cc(SCc5ccccc5)c5ccc2c3c54)cc1` came in with a melting point of 178 to 180 °C. `CC(=O)Nc1nc2ccc(OC(C)=O)cc2n1S(=O)(=O)N(C)C`: the melting point was in the range of 164 to 166 °C. `Cc1ccc(-n2nc(C(F)F)cc2-c2ccc(S(C)(=O)=O)c(F)c2)cc1Cl` yielded a melting point of 146 to 147 °C. For `NC(=O)[C@@H]1[C@H](Nc2c(Br)cnc3[nH]c(-c4cccc(N5CCOCC5)c4)nc23)[C@H]2C=C[C@@H]1C2`, the melting point was in the range of 232 to 234 °C. `CN1CCN(C(=O)OC2c3ccccc3C(=O)N2c2ccc3cnccc3n2)CC1` (stereo not given): the melting point worked out at 215 °C.

As for `OCC1OC(n2cnc3c(Nc4ccccc4)ncnc32)CC1F` (stereo not given), the melting point turned out to be 83 °C.

As for `COc1ccc(Nc2ncc3ccc(=O)n(C(C)C)c3n2)cc1`, the melting point was determined as 170 °C. `COc1cc(C)c2c(c1O)CC(C)(c1ccccc1)C2=O` (stereo not given): the melting point lay within 136 to 139 °C.

`OCc1c(Br)c(Br)c(CO)c(Br)c1Br` gave a melting point of 248 °C. Consider `CC(=O)OCCc1c(C2=CCC(c3ccccc3)(N(C)C)CC2)[nH]c2ccccc12` (stereo not given), for which the melting point lay in the range of 146 to 148 °C. The molecule `CCCc1c[nH]c(-c2ccc(Cl)cc2)c1-c1ccc(Cl)cc1` showed a melting point of 90 to 93 °C. The molecule `CC1(C)C(=O)N(c2ccc(N)c(C(F)(F)F)c2)C(=O)N1CCCCCN1C(=O)N(c2ccc(N)c(C(F)(F)F)c2)C(=O)C1(C)C` gave a melting point of 108 to 109 °C. Consider `CCOC(=O)CCc1cc(Cl)c(Cl)cc1C(=O)CCCNC(C)=O`, for which the melting point is 63 to 65 °C. `CC(C)(C)CNc1nc(NC(C)(C)C)cc(N2CCNCC2)n1`: the melting point was in the range of 146 to 148 °C. For `COc1cc2cc(C#N)c(Cl)nc2cc1OC`, the melting point was determined as 224 °C. In turn, `O=S(=O)(Nc1cccc(CCOCc2ccc(-c3ccc(OC(F)(F)F)cc3)cc2F)c1)C(F)(F)F` gave a melting point of 114 to 115 °C. As to `Cc1ccc(C2=NNC(=O)C3CC23)cc1` (stereo not given), the melting point lay in the range of 162 to 164 °C. Turning to `CN(C)Cc1ccc(OCC(=O)N2CCN(c3ccc(N4C[C@H](CNC(=S)C5CC5)OC4=O)cc3F)CC2)cc1`, the melting point lay in the range of 169 to 170 °C. The molecule `Cc1c(C)c2c(c(C)c1OCC=Cc1ccccc1)C(c1ccc(C(C)C)cc1)C(C)(C)O2` (stereo not given) registered a melting point of 106 to 107 °C. In turn, `COc1ccc(N2CC(=O)N(C)C(=O)N2)cc1` gave a melting point of 179 to 181 °C. The figure for `N#Cc1ccnc(Cl)c1Cl` is 65 to 69 °C; for `COc1cc(C(O)c2ccc(C)cc2)cc(C2OCCCO2)c1OC` (stereo not given) it is 83 to 84 °C; for `COc1nc(C(F)(F)C(F)(F)F)cc(=O)n1-c1cc(O)c(Cl)cc1F` it is 143 to 145 °C. With `FC(F)(F)c1cc(-c2ccccc2)nc(N2CCNCC2)n1`, the melting point is 130 °C. For `CCOC(=O)C(Cc1cccc(OC)c1OCc1ccccc1)(NC(C)=O)C(=O)OCC`, the melting point was in the range of 94 to 96 °C. Consider `CCCCOc1cc(CCC(=O)O)ccc1-c1cccc(N(C)C(=O)Nc2ccccc2)c1`, for which the melting point was in the range of 134 to 136 °C.

Molecule `Cc1c(N)cc(C)c2c(=O)[nH]ccc12` displayed a melting point of 242 °C. With `Cc1cc(=O)c(Oc2ccc(Cl)cc2)c(-c2ccc(S(N)(=O)=O)cc2)o1`, the melting point turned out to be 221 °C. For `COc1ccc(OC)c(CC(=O)CN2N=C(c3ccc(Cl)cc3)c3ccccc3-n3c(C)nnc32)c1` the value was 217 to 218 °C; for `Cc1csc(Cl)c1NC(=S)Nc1cscc1N`, 132 to 135 °C. `O=C(CC(=O)C1CC1)c1ccc(S(F)(F)(F)(F)F)cc1` registered a melting point of 70 to 72 °C. Consider `O=c1[nH]c2ccc(Cl)cc2n2cc(-c3ccccc3)cc12`, for which the melting point worked out at 346 °C. For `CC(=O)N1CCc2cc(S(=O)(=O)n3c(COC(C)(C)C(=O)O)cc4cc(C(F)(F)F)ccc43)ccc21` the value was 176 to 178 °C; for `CSc1ccnc(-c2nc(=O)c3ccccc3s2)c1`, 213 to 214 °C; for `Cn1cncc1C(O)(c1ccc(F)cc1)c1ccc2c(c1)C(c1cccc(Cl)c1)Nc1nnnn1-2` (stereo not given), 121 °C. The molecule `Cc1c(C(=O)O)nc2c(=O)[nH]c3ccc(-n4ccnc4)cc3n12` showed a melting point greater than 250 °C.

`CC(C)N1C(CN2CCOCC2)=Cc2cc(S(N)(=O)=O)sc2S1(=O)=O` registered a melting point of 196 to 198 °C.

Regarding `FC(F)(F)Sc1cn(-c2c(Cl)cc(C(F)(F)F)cc2Cl)c(Cl)n1`, the melting point was determined as 112 °C.

For the molecule `CC(=O)Nc1cc(C)cc(C=O)n1`, the melting point is 202 °C. `CCCCC(=O)Nc1ncc([N+](=O)[O-])s1` gave a melting point of 155 to 156 °C. On to `Cc1cc(C(=O)Nc2c(C)cccc2O)c(Br)s1`, for which the melting point was in the range of 164 to 167 °C.

`C=CCOc1ccc2c(c1)c(C)c(CCC(=O)O)n2Cc1ccc(Cl)cc1` gave a melting point of 131 °C. The molecule `C=C=Cc1c(C)nc2c(OCc3ccccc3C)cccn12` gave a melting point of 88 to 89 °C. For `CCN1C(=O)C(C)(C)C(=O)N(C)c2cc(OCCCN3C(=O)C4(OCCO4)c4ccccc43)ccc21` the value was 143 to 147 °C; for `CN(C)CCCNC(=O)c1cccc(-c2nnc(CSCCOc3ccccc3)o2)c1`, 88 to 90 °C; for `Cc1ccc(Oc2ccc(C3=CC=CN4CCS(=O)(=O)N=C34)cc2)cc1`, 248 to 249 °C. As to `CN1C(=O)CC[C@]2(C)c3ccc(-c4cnc5ccccc5n4)cc3CC[C@@H]12`, the melting point fell in the range of 129 to 135 °C. As to `CCCc1cc(C=Cc2ccc3ccccc3n2)cc(OCC(=O)O)c1`, the melting point was in the range of 97 to 98 °C.

`Cc1cc2c(cc1C)CC(C)NC(=O)C2` (stereo not given) showed a melting point of 226 to 227 °C. `Cc1cc(-n2ccnc2)c2cccc(OCc3c(Cl)ccc(S(=O)(=O)N4CCC[C@H]4C(=O)NCC4CCN(C(=O)c5cccnc5)CC4)c3Cl)c2n1`: the melting point was 109 °C.

The molecule `CC(C)(C)NC(=O)c1nn(-c2ccc(Cl)cc2)c2c1[C@@H]1CC[C@H]2C1` returned a melting point of 159 to 162 °C.

As for `O=C1CC2(CCCCC2)CN1O`, the melting point was determined as 110 °C. The molecule `CCOC(=O)c1cc(N)ccc1O` registered a melting point of 40 to 43 °C. Molecule `Cc1c(C(=O)O)oc2c(c1=O)CSc1ccccc1-2` gave a melting point of 299 to 301 °C.

`Cc1cc(C(C)NC(=O)N(C)O)c(C)s1` (stereo not given) yielded a melting point of 104 to 106 °C. Turning to `O=C1CCCCc2ccc([N+](=O)[O-])cc21`, the melting point was 88 to 89 °C.

As for `Clc1ccc(N2CCN(Cc3c[nH]c4ncccc34)CC2)nc1`, the melting point lay in the range of 196 to 198 °C. For `Cc1cc(C(=O)O)cc(Cl)c1O`, the melting point was in the range of 242 to 244 °C.

For `C=Cn1cc(C(=O)O)c(=O)c2cnc(N3CCN(C)CC3)nc21`, the melting point lay within 233 to 234 °C. Consider `S=P12SP3(=S)SP(=S)(S1)SP(=S)(S2)S3`, for which the melting point lay in the range of 165 to 166 °C.

As to `Cc1cc(O)c(C)c2sc(N)nc12`, the melting point was 199 to 201 °C. The figure for `COC(=O)c1cc(Oc2cccnc2)c(C(F)(F)F)cc1[N+](=O)[O-]` is 98 to 100 °C; for `CCOc1ccc(Nc2nc(=O)cc(N)n2-c2ccccc2)cc1` it is 111 to 113 °C. Molecule `CCC(CC)(CC(=O)Nc1cccc(/C=C/c2nc(C3CCC3)cs2)c1)C(=O)O` registered a melting point of 170 to 172 °C. The molecule `NC(=O)CCCCC(=O)c1ccccc1` gave a melting point of 113 to 114 °C.

For the molecule `CCCc1c(OCCCCCC(=O)NCCCCc2cncnc2)ccc(C(C)=O)c1O`, the melting point was 87 to 89 °C. Consider `CCCc1nc(NN)nc(O)c1Cc1ccc(-c2ccccc2C#N)cc1`, for which the melting point was found to be 191 °C. The figure for `CCOC(=O)C(=C(c1ccc(F)cc1)c1ccc(F)cc1)c1nnn(CC)n1` is 113 to 114 °C. For the molecule `O=C(O)CSCn1cnnn1`, the melting point fell in the range of 98 to 101 °C. For `O=C(CCNc1c(C(=O)O)[nH]c2cc(Cl)ccc12)c1ccccc1` the value was 250 to 255 °C; for `CNC1c2ccccc2-c2[nH]c(=O)c3nccn3c21` (stereo not given), 184 °C; for `O=c1[nH]c2ccccc2c(=O)n1C1CCCCC1`, 236 to 238 °C. The figure for `CCC(CC)n1nnc2c(Oc3c(C)cc(C)cc3C)nc(C)nc21` is 92 °C; for `CC(C)n1nc(-c2nc(C3=CCCN(C)C3)c(N)nc2-c2ccccc2)ccc1=O` it is 191 to 193 °C.

As to `COc1cccc(CC(=O)O)c1OCCCc1cc(OC(C)C)nn1Cc1ccc(Cl)cc1C`, the melting point fell in the range of 108 to 109 °C.

Regarding `Cc1c(-c2cc(N(C)C)ncn2)ssc1=S`, the melting point is 137 °C. `CNc1cccc(F)c1C#N` came in with a melting point of 130 to 132 °C. The figure for `Cc1cc(Oc2ccc(Cl)c(Cl)c2)ccc1S(C)(=O)=O` is 154 to 156 °C; for `O=C(O)c1cccc(-c2cccc3c2CN(Cc2cccc(C(F)(F)F)c2)C3=O)c1` it is 190 to 191 °C.

`COC1C=C(C)C2(OC(=O)c3ccc([N+](=O)[O-])cc3)CC(C)(C)C1O2` (stereo not given) had a melting point of 95 to 95.5 °C. In turn, `CC(=O)NCc1nc(NCCCOc2cccc(CN3CCCCC3)c2)n(C)n1` showed a melting point of 123 °C. Consider `Cc1cccc(CCCCCCCCC(=O)NO)c1`, for which the melting point was in the range of 49 to 50 °C. As for `O=C(Nc1ccc(-n2nc(C(F)(F)F)cc2C(F)(F)F)cc1)c1cccnc1F`, the melting point was in the range of 110 to 112 °C. As for `Fc1ccc(-c2ncn(C3CCCCO3)c2-c2ccc(F)cc2)cc1` (stereo not given), the melting point was in the range of 149 to 152 °C. For `CCOC(=O)c1cn(CC)c2c(F)c(F)c(F)c(C)c2c1=O`, the melting point fell in the range of 197 to 198 °C.

Take `CC1(C)CCC(C)(C)c2cc3c(cc21)CCc1c(-c2ccc(C(=O)O)cc2)c[nH]c1-3`: the melting point was in the range of 268 to 270 °C. For `Cc1cc(-c2nc[nH]n2)ccc1N`, the melting point lay in the range of 183 to 186 °C. The figure for `CCCCCCCCCCCCCCCCN(C(=O)c1ccc(Cl)c([N+](=O)[O-])c1)c1ccccc1[N+](=O)[O-]` is 83 to 85 °C.
